# Earlier results, collected in patent US3968207A, “Method of controlling fleas and ticks on cats and dogs” (priority 1975, dated 1976).
# System: lice
# Details: single spray treatment; cited from earlier work
structure (smiles),measurement,value
"CCOP(=S)(OCC)Oc1nc(Cl)c(Cl)cc1Cl [Dursban, O,O-diethyl O-(3,5,6-trichloro-2-pyridyl)phosphorothioate]",control of lice on cattle,effective control
